Two molecules from US20100256214A1, “EPH RECEPTOR LIGANDS AND METHODS OF USE” (Burnham Institute for Medical Research, priority 2009, published 2010) can be followed below.

In the assay the target is EphA4 (Mus musculus, UniProt Q03137). As to the kind of experiment: EphA4 tyrosine phosphorylation in HT22 neuronal cells. Type of assay: cell-based. Set-up: tyrosine phosphorylation of endogenous EphA4 in HT22 neuronal cells stimulated with ephrin-A5 Fc; endogenous in cells; host or cells: HT22 mouse hippocampal neuronal cells. Conditions: for ephrin-induced EphA4 tyrosine phosphorylation: HT22 cells stimulated with ephrin-A5 Fc; for EphA4 phosphorylation: cells stimulated with ephrin-A4. On the procedure: FIGS. 6A-6F. A. HT22 neuronal cells pretreated with the indicated concentrations of compounds 1 or 2 for 15 min were stimulated with 0.5 μg/mL ephrin-A5 Fc (+) or Fc as a control (−) for 20 min in the continued presence of the compounds. EphA4 immunoprecipitates were probed with anti-phosphotyrosine antibody (PTyr) and reprobed for EphA4. C indicates immunoprecipitations performed with control antibodies from non-immunized rabbits. […] Error bars represent the standard error from 4 experiments for compound 1 and 3 experiments for compound 2. […] C. COS7 cells pretreated with the indicated concentrations of compounds 1 or 2 for 15 min were stimulated with 0.1 μg/mL ephrin-A1 Fc or Fc as a control in the continued presence of the compounds. EphA2 immunoprecipitates were probed with anti-phosphotyrosine antibody (PTyr) and reprobed for EphA2. C indicates immunoprecipitations performed with control antibodies. […] Error bars represent the standard error from 2 experiments. Statistical analyses were performed as in (B). HUVE cells were left unstimulated or stimulated with TNFα for 2 hours in the presence of 400 μM compound 1. Duplicate untreated samples are shown. C indicates immunoprecipitations performed with control antibodies. EphA2 immunoprecipitates were probed with anti-phosphotyrosine antibody (PTyr) and reprobed for EphA2. Levels of EphA2 phosphorylation quantified from immunoblots and normalized to the amount of immunoprecipitated EphA2 were also performed. […] The same protocol described in (C) was used, except that COS7 cells were stimulated with 0.5 μg/mL of ephrin-B2 Fc and the EphB2 receptor was immunoprecipitated. F. COS7 cells pretreated with the indicated concentrations of compounds 1 or 2 were stimulated with EGF (+) or left unstimulated (−). Lysates were probed with anti-phosphotyrosine antibody (PTyr) and reprobed for the EGF receptor.
Sequence of EphA4 (Q03137 20-986): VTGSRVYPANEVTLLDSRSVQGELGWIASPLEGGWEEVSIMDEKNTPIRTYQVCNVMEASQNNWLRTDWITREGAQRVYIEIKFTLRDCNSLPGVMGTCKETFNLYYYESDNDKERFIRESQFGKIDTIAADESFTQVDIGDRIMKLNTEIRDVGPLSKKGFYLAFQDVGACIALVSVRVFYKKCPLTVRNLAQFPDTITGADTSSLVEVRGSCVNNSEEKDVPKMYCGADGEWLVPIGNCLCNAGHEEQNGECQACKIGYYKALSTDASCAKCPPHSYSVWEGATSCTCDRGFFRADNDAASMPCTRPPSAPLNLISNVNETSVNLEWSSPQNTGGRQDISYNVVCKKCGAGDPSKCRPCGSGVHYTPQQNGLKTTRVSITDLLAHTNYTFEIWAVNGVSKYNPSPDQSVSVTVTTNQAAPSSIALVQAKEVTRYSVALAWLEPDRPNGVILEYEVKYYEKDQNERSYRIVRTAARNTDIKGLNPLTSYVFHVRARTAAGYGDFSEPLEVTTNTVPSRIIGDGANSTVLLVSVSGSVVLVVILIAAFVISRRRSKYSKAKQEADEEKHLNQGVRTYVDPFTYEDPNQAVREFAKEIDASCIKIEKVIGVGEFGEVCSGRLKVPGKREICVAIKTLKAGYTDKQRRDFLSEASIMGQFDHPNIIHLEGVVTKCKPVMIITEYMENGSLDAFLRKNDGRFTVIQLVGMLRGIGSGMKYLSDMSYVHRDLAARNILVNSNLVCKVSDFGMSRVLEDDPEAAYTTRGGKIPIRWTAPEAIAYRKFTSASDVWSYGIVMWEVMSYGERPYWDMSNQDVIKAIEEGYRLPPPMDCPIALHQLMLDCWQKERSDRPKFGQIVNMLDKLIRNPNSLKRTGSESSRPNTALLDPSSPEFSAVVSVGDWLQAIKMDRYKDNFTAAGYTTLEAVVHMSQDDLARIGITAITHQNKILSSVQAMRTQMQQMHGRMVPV
Measurement of Receptor Tyrosine Phosphorylation in Cells—HT22 neuronal cells, which endogenously express EphA4, are derived from immortalized mouse hippocampal neurons (Li et al. (1997) Neuron 19(2), 453-463). COST cells, which endogenously express EphA2, EphB2 and the EGF receptor (EGFR), were obtained from ATCC. Both cell lines were grown in Dulbecco's Modified Eagle's Medium (DMEM) (Mediatech, Inc, Herndon, Va.) with 10% fetal bovine serum (FBS) (Hyclone, Logan, Utah) and Pen/Strep. For EphA4 immunoprecipitations, HT22 cells were serum-starved overnight in 0.5% FBS in DMEM and incubated for 15 min with the compounds or DMSO as a control. The cells were then stimulated with 0.5 μg/mL ephrin-A5 Fc, ephrin-A4 Fc or Fc for 20 min in the continued presence of the compounds. […] The protein concentration was calculated using the BCA protein assay kit (Pierce Biotecnology, Rockford, Ill.). […]

SMILES strings stand for the structures.

On to `Cc1ccc(C)n1-c1ccc(O)c(C(=O)O)c1` [compound 2, 5-(2,5 dimethyl-pyrrol-1-yl)-2-hydroxy-benzoic acid], for which the “ephrin-induced EphA4 tyrosine phosphorylation” value is on record as “blocked” and the EphA4 phosphorylation entry was “did not inhibit”.
With `Cc1ccc(C)n1-c1ccc(C(=O)O)c(O)c1` [compound 1, 4-(2,5-dimethyl-pyrrol-1-yl)-2-hydroxy-benzoic acid], the “ephrin-induced EphA4 tyrosine phosphorylation” value is “blocked” and the EphA4 phosphorylation result was “did not inhibit”.
